Among the data in patent US6906065B2, “4-Amino-5-cyano-2-anilino-pyrimidine derivatives and their use as inhibitors of cell-cycle kinases” (AstraZeneca AB, priority 2000, dated 2005) are IC50 values, retold here.

pIC50: −log10 of the molar value.

This experiment deals with T1, CDK2/Cyclin E (Homo sapiens, UniProt P24941).
T1 construct: The open reading frames of CDK2 and Cyclin E were isolated by reverse transcriptase-PCR; made in house; host or cells: Sf21 (Spodoptera frugiperda) insect cells, baculovirus co-infection, vector pVL1393
Description: in vitro kinase assay (Scintillation Proximity Assay), incorporation of [γ-33-P]-ATP into GST-Rb. As to conditions: CDK2/Cyclin E partially-purified enzyme, GST-Rb substrate, 0.2 μM ATP, 60 minutes at room temperature; read-out: CDK2 inhibitory activity IC50. It is filed as biochemical. As for the experimental part:
The compounds were tested in an in vitro kinase assay in 96 well format using Scintillation Proximity Assay (SPA—obtained from Amersham) for measuring incorporation of [γ-33-P]-Adenosine Triphosphate into a test substrate (GST-Retinoblastoma protein; GST-Rb). In each well was placed the compound to be tested (diluted in DMSO and water to correct concentrations) and in control wells either roscovitine as an inhibitor control or DMSO as a positive control. […]
The plates were sealed with Topseal-S plate sealers, left for two hours then spun at 2500 rpm, 1124×g., for 5 minutes. The plates were read on a Topcount for 30 seconds per well. […]
E.coli paste was resuspended in 10 ml/g of NETN buffer (50 mM Tris pH 7.5, 120 mM NaCl, 1 mM EDTA, 0.5% v/v NP-40, 1 mM PMSF, 1 ug/ml leupeptin, 1 ug/ml aprotinin and 1 ug/ml pepstatin) and sonicated for 2×45 seconds per 100 ml homogenate. […] The final product was analysed by Sodium Dodeca Sulfate (SDS) PAGE (Polyacrylamide gel) using 8-16% Tris-Glycine gels (Novex, San Diego, USA).
The open reading frames of CDK2 and Cyclin E were isolated by reverse transcriptase-PCR using HeLa cell and activated T cell mRNA as a template and cloned into the insect expression vector pVL1393 (obtained from Invitrogen 1995 catalogue number: V1392-20). […]
A general note: Scintillation proximity formats need no separation of bound from free tracer.

By pIC50 is commonly meant the negative decadic logarithm of the IC50, by convention in mol/L.

As for `N#Cc1cnc(Nc2ccc(S(=O)(=O)NC3CCC3)cc2)nc1N` [Example 21, 4-Amino-5-cyano-2-{4-[N-(cyclobutyl)sulphamoyl]anilino}pyrimidine], the pIC50 was 7.48.
Next, `CCCNS(=O)(=O)c1ccc(Nc2ncc(C#N)c(N)n2)cc1` [Example 23, 4-Amino-5-cyano-2-[4-(N-propylsulphamoyl)anilino]pyrimidine]: 7.77.
